Assay results reported in article PMC5843810, “18th European Symposium on Radiopharmacy and Radiopharmaceuticals” (EJNMMI Radiopharmacy and Chemistry, 2016).
Where two headings read alike, the source gives them in different places. Where a SMILES comes first, the peptide text is derived from it. Bridges are numbered along the chain shown (N, C = ends). [ ]: non-standard residue; d: D form. Ahx = NCCCCCC(=O)O; βAla = NCCC(=O)O

How the values were obtained:
[1] = PET/CT imaging in nude mice bearing U87MG xenograft tumor; type: in vivo; conditions: mouse, 90 min post injection
Method: Materials and methods: The PET imaging properties of [^68Ga]FSC(succ-RGD)3 were studied in nude mice bearing M21 human melanoma xenografts and human glioblastoma U87MG xenograft tumor. A parallel PET imaging of ^68GaNODAGA-RGD in same mouse bearing U87MG xenograft tumor was performed as a comparison.

[2] = Method: Methods: Labelling was carried out in a remote controlled synthesis unit under clean room conditions. Quality control included TLC, HPLC, GC, pH control, Ge-breakthrough, half-life, endotoxin content, and control of sterility. Storage stability after 4 h was studied and dose estimations based on animal data were carried out using OLINDA. Sprague-Dawley rats were used for an extended single dose toxicity study. The phase I clinical study included 9 patients with hepatocellular carcinoma (HCC). Static scans at 5, 30, and 60 min p.i. including 5 bed positions each were performed using the Discovery 690 PET/CT. Blood was sampled 30 and 60 min p.i. and urine 60 min p.i. and used for stability studies via HPLC.
[3] = Extended single dose toxicity study in Sprague-Dawley rats; type: in vivo
HDAC6 [4] = molecular target: T1, HDAC6 (Rattus norvegicus, UniProt A0A8I6GM68); assay: Autoradiography on Wistar rat brain tissue; type: binding; conditions: rat brain slices, 100 μM
T1 construct: wild-type Wistar rat brain tissue; from tissue; host or cells: wild-type Wistar rat brain slices
Method: (§1) The biodistribution was studied in NMRI-mice at 2, 10, 30 and 60 min (n = 3/time point) post injection (p.i.). Organs and tissues were harvested and radioactivity was counted in a gamma-counter. […] Slices were incubated with 18.5 MBq/400μL (brain) or 18.5 MBq/250 μL (tumor) of tracer with/without 100 μM of cold authentic reference compound (KB631) or non-structural related pan-HDAC inhibitor Suberoylanilide hydroxamic acid (SAHA).

HDAC6 [5] = molecular target: T2, HDAC6 (Homo sapiens, UniProt Q9UBN7); assay: Autoradiography on PC3/LNCaP prostate tumor slices; type: binding; conditions: 100 μM
T2 construct: wild-type Wistar rat brain tissue and PC3/LNCaP prostate tumor slices; from tissue; host or cells: PC3 and LNCaP prostate tumour slices (xenografts)
T2 sequence (Q9UBN7 1-1215): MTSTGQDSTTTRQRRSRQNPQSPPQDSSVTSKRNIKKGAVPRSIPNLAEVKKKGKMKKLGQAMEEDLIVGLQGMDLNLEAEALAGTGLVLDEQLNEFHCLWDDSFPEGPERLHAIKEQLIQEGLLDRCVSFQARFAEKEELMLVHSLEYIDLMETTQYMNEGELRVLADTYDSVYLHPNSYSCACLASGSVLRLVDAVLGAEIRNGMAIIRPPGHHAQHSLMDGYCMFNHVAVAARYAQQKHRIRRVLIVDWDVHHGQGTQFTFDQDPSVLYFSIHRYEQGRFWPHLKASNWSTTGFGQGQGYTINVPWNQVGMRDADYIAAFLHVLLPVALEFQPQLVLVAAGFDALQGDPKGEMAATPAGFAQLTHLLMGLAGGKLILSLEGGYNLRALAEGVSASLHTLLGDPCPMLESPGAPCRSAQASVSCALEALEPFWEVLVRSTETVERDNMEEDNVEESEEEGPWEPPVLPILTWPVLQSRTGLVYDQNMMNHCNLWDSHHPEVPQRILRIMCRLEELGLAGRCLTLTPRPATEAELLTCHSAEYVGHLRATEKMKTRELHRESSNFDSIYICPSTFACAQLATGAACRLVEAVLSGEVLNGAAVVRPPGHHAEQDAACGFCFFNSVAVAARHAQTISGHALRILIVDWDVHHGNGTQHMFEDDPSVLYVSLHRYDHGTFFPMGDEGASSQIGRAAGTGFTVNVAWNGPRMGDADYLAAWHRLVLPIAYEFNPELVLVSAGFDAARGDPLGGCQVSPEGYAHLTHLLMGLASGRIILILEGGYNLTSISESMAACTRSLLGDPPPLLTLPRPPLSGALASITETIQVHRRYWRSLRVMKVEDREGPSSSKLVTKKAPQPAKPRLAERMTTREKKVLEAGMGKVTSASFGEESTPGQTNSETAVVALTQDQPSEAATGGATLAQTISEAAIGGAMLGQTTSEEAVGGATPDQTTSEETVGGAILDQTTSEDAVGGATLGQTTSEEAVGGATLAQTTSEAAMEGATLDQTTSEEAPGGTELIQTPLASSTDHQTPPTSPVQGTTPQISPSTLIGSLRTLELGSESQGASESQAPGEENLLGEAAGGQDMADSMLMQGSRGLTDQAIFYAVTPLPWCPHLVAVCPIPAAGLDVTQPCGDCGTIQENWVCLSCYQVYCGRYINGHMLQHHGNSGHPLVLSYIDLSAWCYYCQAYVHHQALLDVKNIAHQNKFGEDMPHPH
Method: as §1

U87MG tumor = system: U87MG tumor
Method: Materials and Methods: The radiolabelling was performed using an automated system with inline quality control. Fraction of 68GaCl3 eluate from an organic matrix based 68Ge/68Ga generator, 400-700 MBq in 2 mL, was used to label NOTA/NODAGA/DOTA-derivatised cRGD peptides. Elution, labeling and purification procedures were performed in 20-25 min. The biodistribution was tested in tumor bearing animal models (U87MG, Walker 256, B21 and AR42J). The affinity of cyclo-RGD peptides to tumor cell-surface receptors was determined by real-time quantification using Ligand Tracer.

AR42J and U87MG = assay: Real-time binding and retention on tumor cells (Ligand Tracer); type: cell-based
Method: Materials and Methods: The radiolabelling was performed using an automated system with inline quality control. Fraction of 68GaCl3 eluate from an organic matrix based 68Ge/68Ga generator, 400-700 MBq in 2 mL, was used to label NOTA/NODAGA/DOTA-derivatised cRGD peptides. Elution, labeling and purification procedures were performed in 20-25 min. […] The affinity of cyclo-RGD peptides to tumor cell-surface receptors was determined by real-time quantification using Ligand Tracer.

MC1R = molecular target: T3, MC1R (Mus musculus, UniProt Q01727); assay: MC1R binding affinity in B16/F10 melanoma cells; conditions: unlabelled peptides
T3 construct: endogenous in cells; host or cells: B16/F10

[6] = healthy Balb/c mice n=5, i.v., 1h p.i.
Method: The biodistribution of such prepared 68Ga-PSMA-11 was investigated in healthy Balb/c mice (n=5) after intravenous injection of 0.1mL (38 MBq/mL) (at 15, 30, 60 and 120min).

[7] = system: human breast cancer cell lines; design: method as in not given; conditions: ref not given; cited from earlier work
Text: Introduction: Substituted benzotiazoles (BT) are a class of compounds with high affinity and selectivity to aryl hydrocarbon receptor (AhR), a receptor often expressed in breast cancer tissue.

GRP receptors = GRP receptors (Homo sapiens, UniProt P30550); assay: GRP receptor affinity of PD-410; type: binding
Text: Introduction: The Gastrin Releasing Peptide (GRP) receptor has high expression on prostate cancer cells. Consequently, bombesin, a 14-amino acid peptide that binds with high affinity to GRP receptors, has been widely studied for the development of radiopeptides for application in prostate cancer imaging. To overcome some limitations of radiolabelled peptides, we developed a small molecule non-peptidic radiotracer targeting GRP receptors. […] The aim of the present study is to develop a non-peptidic fluorine-18 PET radioligand with antagonist properties, for visualization of GRP receptors.

T1 sequence (A0A8I6GM68 whole entry): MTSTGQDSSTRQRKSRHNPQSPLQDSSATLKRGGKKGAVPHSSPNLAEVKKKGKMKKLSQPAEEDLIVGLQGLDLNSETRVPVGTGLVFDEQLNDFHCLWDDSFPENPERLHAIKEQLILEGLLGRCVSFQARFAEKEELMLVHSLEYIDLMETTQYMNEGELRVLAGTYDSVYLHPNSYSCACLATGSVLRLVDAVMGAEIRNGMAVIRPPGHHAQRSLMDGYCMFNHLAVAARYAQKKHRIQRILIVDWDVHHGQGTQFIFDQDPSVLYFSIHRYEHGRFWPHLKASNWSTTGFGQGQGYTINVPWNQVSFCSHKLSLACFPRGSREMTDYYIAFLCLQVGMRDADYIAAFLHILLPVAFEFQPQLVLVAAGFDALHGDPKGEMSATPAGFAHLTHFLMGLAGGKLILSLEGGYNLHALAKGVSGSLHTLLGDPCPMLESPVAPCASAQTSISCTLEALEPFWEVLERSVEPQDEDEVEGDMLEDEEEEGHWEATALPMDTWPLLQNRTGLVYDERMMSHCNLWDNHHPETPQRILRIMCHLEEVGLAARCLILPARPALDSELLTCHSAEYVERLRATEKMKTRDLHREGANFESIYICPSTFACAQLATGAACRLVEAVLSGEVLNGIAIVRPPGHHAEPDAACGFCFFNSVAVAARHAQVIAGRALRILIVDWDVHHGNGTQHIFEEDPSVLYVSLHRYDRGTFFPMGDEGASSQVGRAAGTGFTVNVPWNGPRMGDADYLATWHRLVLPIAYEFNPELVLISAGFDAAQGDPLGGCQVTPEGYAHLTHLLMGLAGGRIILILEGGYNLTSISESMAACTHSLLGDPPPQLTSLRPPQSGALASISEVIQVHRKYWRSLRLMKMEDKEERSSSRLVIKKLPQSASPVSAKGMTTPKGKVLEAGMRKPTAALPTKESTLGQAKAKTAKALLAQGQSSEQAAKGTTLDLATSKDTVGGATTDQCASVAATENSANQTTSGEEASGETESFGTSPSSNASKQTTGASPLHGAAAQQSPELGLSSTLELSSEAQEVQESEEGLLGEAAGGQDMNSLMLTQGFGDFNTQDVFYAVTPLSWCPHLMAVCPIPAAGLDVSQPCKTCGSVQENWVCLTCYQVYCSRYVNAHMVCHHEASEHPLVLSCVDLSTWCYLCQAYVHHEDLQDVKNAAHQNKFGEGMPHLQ
Sequence of GRP receptors (P30550 whole entry): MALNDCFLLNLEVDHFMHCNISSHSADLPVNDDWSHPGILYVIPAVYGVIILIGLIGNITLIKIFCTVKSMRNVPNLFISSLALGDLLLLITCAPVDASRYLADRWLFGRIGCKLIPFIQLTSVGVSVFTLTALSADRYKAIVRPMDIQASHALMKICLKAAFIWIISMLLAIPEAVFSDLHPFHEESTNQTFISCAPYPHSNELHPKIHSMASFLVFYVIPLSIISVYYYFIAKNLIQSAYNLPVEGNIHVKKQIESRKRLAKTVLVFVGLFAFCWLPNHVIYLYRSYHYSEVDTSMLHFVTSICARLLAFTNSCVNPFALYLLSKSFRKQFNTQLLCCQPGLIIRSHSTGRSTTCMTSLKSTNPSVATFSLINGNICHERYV
T3 sequence (Q01727 whole entry): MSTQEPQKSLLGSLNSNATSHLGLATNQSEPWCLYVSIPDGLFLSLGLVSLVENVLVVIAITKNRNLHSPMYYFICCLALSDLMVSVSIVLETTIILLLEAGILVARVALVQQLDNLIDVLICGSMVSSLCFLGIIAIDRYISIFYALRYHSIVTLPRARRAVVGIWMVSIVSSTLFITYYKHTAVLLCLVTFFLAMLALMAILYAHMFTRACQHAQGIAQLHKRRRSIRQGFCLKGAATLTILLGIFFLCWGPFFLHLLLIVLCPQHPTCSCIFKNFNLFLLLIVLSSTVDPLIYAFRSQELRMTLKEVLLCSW

For N=C(N)NCCC[C@@H]1NC(=O)[C@H](CCCCNC(=O)CCC(C(=O)O)N2CCN(CC(=O)O)CCN(CC(=O)O)CC2)NC(=O)[C@@H](Cc2ccccc2)NC(=O)[C@H](CC(=O)O)NC(=O)CNC1=O (stereo partly drawn) [[68Ga]NODAGA-RGD, metal not drawn], the tissue to tissue ratio at […] ([1]; tumour and kidneys, read-out: tumor/kidneys ratio) was 1.6, the tissue to tissue ratio at […] ([1]; tumour and muscle, read-out: tumor/muscle ratio) was 5 and the “side effects in clinical study” value ([2]; 9 patients with HCC) was “no severe side effects were observed”. For the same compound, the calculated effective dose ([2]; human, in vivo) was 21.5±5.4 μSv/MBq, the metabolic stability ([2]; patient blood (30, 60 min p.i.) and urine (60 min p.i.), HPLC) was “High metabolic stability” and the “tolerability in single dose toxicity study” value [3] was “well tolerated in animals”.

With O=C(CCCCCCC(=O)Nc1ccccc1)NO [SAHA, Suberoylanilide hydroxamic acid] the “displacement of [11C]KB631 binding, brain” value (HDAC6 [4]) was 73%, the “displacement of [11C]KB631 binding, LNCaP” value (HDAC6 [5]; LNCaP tumor slices) was 59% and the “displacement of [11C]KB631 binding, PC3” value (HDAC6 [5]; PC3 tumor slices) was 39%.

With “DOTA-E-[c(RGDfK)2] (head to tail) [68Ga-DOTA-E-[c(RGDfK)2], 68Ga-labelled dimeric cyclo-RGD peptide]” the tumor uptake (U87MG tumor) was “Up to 5.3 % ID/g” and the “retention, from activity in the cells” value (AR42J and U87MG) was “up to 58%”.

CC(C)[C@H](NC(=O)[C@@H]1CCCN1C(=O)[C@H](CCCNC(=N)N)NC(=O)[C@@H]1CCC(=O)NCCCC[C@H](NC(=O)CCNC(=O)CCCCCNC(=O)[C@@H](N)CS)C(=O)N[C@@H](CCC(=O)O)C(=O)N[C@@H](Cc2c[nH]cn2)C(=O)N[C@H](Cc2ccccc2)C(=O)N[C@@H](CCCNC(=N)N)C(=O)N[C@@H](Cc2c[nH]c3ccccc23)C(=O)N1)C(N)=O [NAP_NS2, H-Cys-Ahx-βAla^3-c[Lys^4-Glu-His-D-Phe-Arg-Trp-Glu^10]-Arg^11-Pro-Val-NH2] (H-C[Ahx][βAla]KEH[dF]RWERPV-NH2; lactam 4-10) showed a Ki (MC1R) of 7.1 ± 2.4 nM.

With O=C(O)CCc1ccc(O)c(CN(CCN(CC(=O)O)Cc2cc(CCC(=O)NCCCCCC(=O)NCCCC[C@H](NC(=O)N[C@@H](CCC(=O)O)C(=O)O)C(=O)O)ccc2O)CC(=O)O)c1 [68Ga-PSMA-11, Glu-CO-Lys(Ahx)-HBED-CC, metal not drawn] the urine elimination [6] was > 70%.

For COc1ccc(-c2nc3cc(F)ccc3s2)cc1OC [PMX 610, 2-(3,4-dimethoxyphenyl)-5-fluorobenzothiazole], the GI50 [7] is given as < 0.1 nM.

Compound C[C@@](Cc1c[nH]c2ccccc12)(NC(=O)Nc1ccc([N+](=O)[O-])cc1)C(=O)NCC1(c2ccc(OCCF)cn2)CCCCC1 [PD-410, (S)-3-(1H-indol-3-yl)-N-[1-[5-(2-fluoroethoxy)pyridin-2-yl]cyclohexylmethyl]-2-methyl-2-[3-(4-nitrophenyl)ureido]propionamide] has a Ki (GRP receptors) of 38 ± 2 nM.
